Experimental data published in patent publication US7820640B2, “Methods for treating hearing loss” (Sound Pharmaceuticals Incorporated, priority 2002, dated 2010).
Several values for one entry are separate records, joined by “and”; a condition that tells them apart may be missing. Equal values may be shown once.

Tests used:
Assay type in all cases: in vivo, rat
[1] = system: Fisher-344 rats exposed to 110-115 dB noise at 4-16 kHz for 4 hours; assay: ABR threshold shift after a single noise exposure (Example 1); conditions: for difference in ABR threshold shifts between control and treated rats: 4-16 kHz click stimulus, ebselen 16 mg/kg
Protocol: (§1) Noise exposure paradigm: 8-week old female Fisher-344 rats were exposed to 110-115 dB noise at 4-16 kHz for 4 hours.
Physiologic analyses: The auditory evoked brainstem response (ABR) was used to assess hearing in each ear in each animal before and after exposure to noise using equipment from Intelligent Hearings System. ABR generated with a click stimulus (broad spectrum stimulus, 4-16 kHz) was measured in 5 dB intervals. Animals were re-evaluated evaluated at 1 day, 1 week, 2 weeks, and 3 weeks post noise exposure. ABR changes measured 1 day post noise exposure are considered to represent a temporary threshold shift (TTS); ABR changes measured 3 weeks post noise exposure are considered to represent a permanent threshold shift (PTS).
(§2) Dosing of Otoprotectants: Ebselen was dissolved at 4 mg/mL in 10% DMSO and administered to rats at 16 mg/kg. N-acetyl-cysteine was dissolved at 100 mg/mL in saline and was administered to rats at 325 mg/kg. About 0.5 ml of ebselen solution or N-acetyl-cysteine solution was injected intra-peritoneally or delivered by oral gavage twice daily the day prior to, the day of, and the day following exposure to noise. Control animals were dosed on an identical schedule with vehicle (10% DMSO) only.
Statistical analysis: All experiments were performed with four rats per study group, and measuring each ear independently before and after noise exposure. Data was collected in blinded studies. Statistical analyses were performed by analysis of variance (ANOVA) between study groups.

[2] = system: outer hair cells in cochlea of noise-exposed Fisher-344 rats; assay: Cochlear hair cell counts after noise exposure (Example 1); conditions: for physiologic protection from noise-induced hearing loss and hair cell loss: Example 1 conclusion, ebselen 16 mg/kg, N-acetyl-cysteine 325 mg/kg
Protocol: as §1
Morphologic analyses: Hair cell counts in cochlea from test animals following noise exposure and physiologic evaluation using ABR were determined by carefully dissecting cochlea to obtain inner ear sensory epithelia. The tissues were stained with fluorescein-labeled phalloidin (specific for actin filaments, which are abundant in hair cells) and 4,6-diamidino-2-phenylindole (DAPI; specific for the DNA in the nucleus in cells). Samples were then mounted on microscope slides and viewed with epifluorescence to determine the extent of hair cell loss and retention. The correlation between physiologic data (ABR) and morphological data (hair cell counts) allows for confirmation of the protective effects of otoprotectants of the invention.
as §2

[3] = system: Fisher-344 rats exposed to 110-115 dB noise at 4-16 kHz for 4 hours; assay: ABR permanent threshold shift, ebselen and allopurinol alone or combined (Example 2); conditions: for difference in ABR threshold shifts between control and treated rats: 16 mg/kg individually, combination 8 mg/kg each, highly significant = p<0.01; for protection from both temporary and permanent thresholds shifts: ABR, rats exposed to noise, alone or in combination; for reductions in PTS compared with controls: three weeks after noise exposure, intra-peritoneal injection at 16 mg/kg individually
Protocol: Noise exposure paradigm: 8-10 week old female Fisher-344 rats were exposed to 110-115 dB noise at 4-16 kHz for 4 hours.
Physiologic analyses: ABR generated with a click stimulus (broad spectrum stimulus, 4-16 kHz), and with tone stimuli at frequencies of 4 kHz, 8 kHz, 12 kHz, and 16 kHz, was measured in 5 dB intervals, as described in EXAMPLE 1. Animals were tested before and at 3 weeks post noise exposure to assess PTS.
Dosing of compounds: Ebselen was dissolved at 4 mg/ml in 10% DMSO and allopurinol was dissolved at 4 mg/ml in water. Ebselen and allopurinol were administered to rats at an individual dose of 16 mg/kg or at a combined dose of 8 mg/kg each. About 0.5 ml of ebselen solution, allopurinol solution, or ebselen/allopurinol solution was injected intra-peritoneally or delivered by oral gavage twice daily the day prior to, the day of, and the day following exposure to noise. Control animals were dosed on an identical schedule with vehicle only.
(§3) Statistical analysis: All experiments were performed with four rats per study group, and measuring each ear independently before and after noise exposure. Data was collected in blinded studies. Statistical analyses were performed by ANOVA between study groups.

[4] = system: Fisher-344 rats exposed to 110 dB noise at 4-16 kHz for 4 hours two times three weeks apart; assay: ABR threshold shift after repeated noise exposure (Example 3); conditions: 16 mg/kg; for difference in ABR threshold shifts between control and treated rats: 3 weeks after two exposures to 110 dB noise
Protocol: (§4) Noise exposure paradigm: 8-week old female Fisher-344 rats were exposed to 110 dB noise at 4-16 kHz for 4 hours two times three weeks apart.
Physiologic analyses: ABR generated with tone stimuli at frequencies of 4 kHz, 8 kHz, 12 kHz, and 16 kHz, was measured in 5 dB intervals, as described in EXAMPLE 1. […]
(§5) Dosing of Ebselen: Ebselen was dissolved at 4 mg/mL in 10% DMSO and administered to rats at a dose of 16 mg/kg. About 0.5 ml of ebselen solution was injected intra-peritoneally or delivered by oral gavage twice daily the day prior to, the day of, and the day following each exposure to noise. Control animals were dosed on an identical schedule with vehicle only.
as §3

[5] = system: outer hair cells in cochlea of repeatedly noise-exposed Fisher-344 rats; assay: Cochlear hair cell counts after repeated noise exposure (Example 3); conditions: 16 mg/kg
Protocol: as §4
Morphologic analyses: Hair cell counts in cochlea from test animals following noise exposure and physiologic evaluation using ABR were determined as described in EXAMPLE 1.
as §5

[6] = 1 week post noise, N-acetyl-cysteine 325 mg/kg, highly significant = p<0.01, significant = p<0.05
[7] = 2 weeks post noise, N-acetyl-cysteine 325 mg/kg, highly significant = p<0.01, significant = p<0.05
[8] = 3 weeks post noise, N-acetyl-cysteine 325 mg/kg, significant = p<0.05
[9] = 1 day post noise (115 dB, 4-16 kHz, 4 h), N-acetyl-cysteine 325 mg/kg twice daily, highly significant = p<0.01, significant = p<0.05
[10] = 4 kHz stimulus, 3 weeks after noise
[11] = click stimulus, 3 weeks after 115 dB, 4-16 kHz noise for 4 h

Structure (SMILES)	difference in ABR threshold shifts between control and treated rats [1, 6]	difference in ABR threshold shifts between control and treated rats [1, 7]	difference in ABR threshold shifts between control and treated rats [1, 8]	difference in ABR threshold shifts between control and treated rats [1, 9]	physiologic protection from noise-induced hearing loss and hair cell loss [2]	difference in ABR threshold shifts between control and treated rats [3, 10]	protection from both temporary and permanent thresholds shifts [3]	difference in ABR threshold shifts between control and treated rats [3, 11]	reductions in PTS compared with controls [3]	also measured
CC(=O)N[C@@H](CS)C(=O)O [N-acetyl-cysteine, N-acetyl-L-Cysteine]	significant	significant	significant	significant	physiologic protection	–	–	–	–	reduction in TTS ([1]; click stimulus, all time points after noise exposure, 325 mg/kg): significant reduction
Oc1ncnc2[nH]ncc12 [allopurinol, 4-hydroxypyrazolo[3,4-d]pyrimidine]	–	–	–	–	–	highly significant	significant protection	highly significant	significant reductions	difference in ABR threshold shifts between control and treated rats ([3]; 16 kHz stimulus, 3 weeks after noise): highly significant; protection from noise-induced hearing loss and hair cell loss ([3]; statement in Example 1 referring to EXAMPLE 2): provide protection
O=c1c2ccccc2[se]n1-c1ccccc1 [ebselen, 2-phenyl-1,2-benzoisoselenazol-3(2H)-one]	highly significant	highly significant	significant	highly significant	physiologic protection	highly significant	significant protection	highly significant	significant reductions	reduction in TTS and PTS compared to control animals (fold) ([1]; click stimulus, 16 mg/kg): at least two-fold; reduction in TTS (temporary threshold shift) compared with controls ([1]; click stimulus, one day after noise exposure, 16 mg/kg): highly significant reduction; reduction in PTS (permanent threshold shift) compared with controls ([1]; click stimulus, three weeks after noise exposure, 16 mg/kg): significant reduction; PTS of a treated animal ([1]; single ebselen-treated animal, control animal 15 dB PTS): 0 dB; preservation of outer hair cells ([2]; after noise exposure, control animal had almost complete loss of outer hair cells): preservation of most outer hair cells; difference in ABR threshold shifts between control and treated rats ([4]; 8 kHz stimulus, p<0.01): highly significant; difference in ABR threshold shifts between control and treated rats ([4]; 16 kHz stimulus, p<0.05): significant; reduction in TTS compared with controls ([4]; 1 day after repeated noise exposures): significant reduction; PTS compared to controls ([4]; three weeks after repeated noise exposures): significantly reduced; number of outer hair cells lost ([5]; individual rats B and D, two exposures to 110 dB noise, control rats A and C lost 401 and 246): 90 and 56; hair cell loss in cochlea compared to the control group ([5]; repeated noise exposure): less hair cell loss
